# Test system: 293T-HRE-GFP-luc cells
# Assay: Cell-based reporter assay for IC50 determinations (HRE-luciferase, hypoxia)
# Settings: 6 hrs hypoxia (1% O2), luminescence
# How it was run: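 293T-HRE-GFP-luc cells were pre-incubated with serially diluted compounds for 30 min under normoxia, then held 6 hrs in hypoxia (1% O2, 37° C). HRE-driven luciferase read by Steadylite Plus luminescence; IC50 from four-parameter logistic fit.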
SMILES,IC50 (6 h),IC50
"CS(=O)(=O)C1CCN(c2cccc(Cn3nc(-c4nc(-c5ccc(OC(F)F)cc5)no4)ccc3=O)c2)CC1 [Example 82, 6-(3-(4-(Difluoromethoxy)phenyl)-1,2,4-oxadiazol-5-yl)-2-(3-(4-(methylsulfonyl)piperidin-1-yl)benzyl)pyridazin-3(2H)-one]",< 100 nM,
"CS(=O)(=O)C1CCN(c2cccc(Cn3nc(-c4nc(-c5ccc(N6CCOCC6)cc5)no4)ccc3=O)c2)CC1 [Example 83, 2-(3-(4-(Methylsulfonyl)piperidin-1-yl)benzyl)-6-(3-(4-morpholinophenyl)-1,2,4-oxadiazol-5-yl)pyridazin-3(2H)-one]",< 100 nM,
"COCCOc1cccc(Cn2cc(-c3noc(-c4ccc(C5CCCCC5)cc4)n3)ccc2=O)c1 [Example 84, 5-(5-(4-Cyclohexylphenyl)-1,2,4-oxadiazol-3-yl)-1-(3-(2-methoxyethoxy)benzyl)pyridin-2(1H)-one]",< 100 nM,
"COCCOc1cccc(Cn2cc(-c3noc(-c4ccc(S(=O)(=O)CC#N)cc4)n3)ccc2=O)c1 [Example 85, 2-(4-(3-(1-(3-(2-Methoxyethoxy)benzyl)-6-oxo-1,6-dihydropyridin-3-yl)-1,2,4-oxadiazol-5-yl)phenylsulfonyl)acetonitrile]",100 to 1000 nM,
"COCCOc1cccc(Cn2cc(-c3noc(-c4cnc(SC)nc4)n3)ccc2=O)c1 [Example 86, 1-(3-(2-Methoxyethoxy)benzyl)-5-(5-(2-(methylthio)pyrimidin-5-yl)-1,2,4-oxadiazol-3-yl)pyridin-2(1H)-one]",< 100 nM,
"COCCOc1cccc(Cn2cc(-c3noc(-c4cnc(OCC(C)C)nc4)n3)ccc2=O)c1 [Example 87, 5-(5-(2-Isobutoxypyrimidin-5-yl)-1,2,4-oxadiazol-3-yl)-1-(3-(2-methoxyethoxy)benzyl)pyridin-2(1H)-one]",< 100 nM,
"COCCOc1cccc(Cn2cc(-c3noc(-c4cnc(N5CCCCC5)nc4)n3)ccc2=O)c1 [Example 88, 1-(3-(2-Methoxyethoxy)benzyl)-5-(5-(2-(piperidin-1-yl)pyrimidin-5-yl)-1,2,4-oxadiazol-3-yl)pyridin-2(1H)-one]",< 100 nM,
"Cc1cnc(-c2nc(-c3ccc(C(C)(C)C)cc3)no2)nc1Cc1cccc(N2CCN(C)CC2)c1 [Example 89, 3-(4-(Tert-butyl)phenyl)-5-(5-methyl-4-(3-(4-methylpiperazin-1-yl)benzyl)pyrimidin-2-yl)-1,2,4-oxadiazole]",< 100 nM,
"Cc1ncc(-c2nc(-c3ccc(OC(F)(F)F)cc3)no2)nc1Cc1cccc(N2CCN(C)CC2)c1 [Example 90, 5-(5-Methyl-6-(3-(4-methylpiperazin-1-yl)benzyl)pyrazin-2-yl)-3-(4-(trifluoromethoxy)phenyl)-1,2,4-oxadiazole]",< 100 nM,
"CN1CCN(c2cccc(Cn3cc(-c4ncc(-c5ccc(OC(F)(F)F)cc5)o4)ccc3=O)c2)CC1 [Example 91, 1-(3-(4-Methylpiperazin-1-yl)benzyl)-5-(5-(4-(trifluoromethoxy)phenyl)oxazol-2-yl)pyridin-2(1H)-one]",,< 100 nM
"CN1CCN(c2cc(Cn3cc(-c4ncc(-c5ccc(OC(F)(F)F)cc5)o4)ccc3=O)ccn2)CC1 [Example 92, 1-((2-(4-Methylpiperazin-1-yl)pyridin-4-yl)methyl)-5-(5-(4-(trifluoromethoxy)phenyl)oxazol-2-yl)pyridin-2(1H)-one]",100 to 1000 nM,
"CN1CCN(c2cccc(Cn3cc(-c4nc(-c5ccc(OC(F)(F)F)cc5)co4)ccc3=O)c2)CC1 [Example 93, 1-(3-(4-Methylpiperazin-1-yl)benzyl)-5-(4-(4-(trifluoromethoxy)phenyl)oxazol-2-yl)pyridin-2(1H)-one]",,< 100 nM
"COCCOc1cccc(Cn2cc(-c3nc(-c4ccc(OC(F)(F)F)cc4)co3)ccc2=O)c1 [Example 94, 1-(3-(2-Methoxyethoxy)benzyl)-5-(4-(4-(trifluoromethoxy)phenyl)oxazol-2-yl)pyridin-2(1H)-one]",< 100 nM,
"CS(=O)(=O)CCCOc1cccc(Cn2cc(-c3nc(-c4ccc(OC(F)(F)F)cc4)co3)ccc2=O)c1 [Example 95, 1-(3-(3-(Methylsulfonyl)propoxy)benzyl)-5-(4-(4-(trifluoromethoxy)phenyl)oxazol-2-yl)pyridin-2(1H)-one]",< 100 nM,
"CN1CCN(c2cccc(Cn3cc(-c4cc(-c5ccc(OC(F)(F)F)cc5)on4)ccc3=O)c2)CC1 [Example 96a, 1-(3-(4-Methylpiperazin-1-yl)benzyl)-5-(5-(4-(trifluoromethoxy)phenyl)isoxazol-3-yl)pyridin-2(1H)-one]",< 100 nM,
"CN1CCN(c2cccc(Cn3cc(-c4cc(-c5ccc(OC(F)(F)F)cc5)no4)ccc3=O)c2)CC1 [Example 96b, 1-(3-(4-methylpiperazin-1-yl)benzyl)-5-(3-(4-(trifluoromethoxy)phenyl)isoxazol-5-yl)pyridin-2(1H)-on]",< 100 nM,
"CN1CCN(c2cc(Cn3cc(-c4cc(-c5ccc(OC(F)(F)F)cc5)on4)ccc3=O)ccn2)CC1 [Example 97a, 1-((2-(4-Methylpiperazin-1-yl)pyridin-4-yl)methyl)-5-(5-(4-(trifluoromethoxy)phenyl)isoxazol-3-yl)pyridin-2(1H)-one]",< 100 nM,

SMILES,IC50 (6 h),IC50
"CN1CCN(c2cc(Cn3cc(-c4cc(-c5ccc(OC(F)(F)F)cc5)no4)ccc3=O)ccn2)CC1 [Example 97b, 1-((2-(4-methylpiperazin-1-yl)pyridin-4-yl)methyl)-5-(3-(4-(trifluoromethoxy)phenyl)isoxazol-5-yl)pyridin-2(1H)-one]",< 100 nM,
"CS(=O)(=O)C1CCN(c2cccc(Cn3cc(-c4cc(-c5ccc(OC(F)(F)F)cc5)no4)ccc3=O)c2)CC1 [Example 98, 1-(3-(4-(Methylsulfonyl)piperidin-1-yl)benzyl)-5-(3-(4-(trifluoromethoxy)phenyl)isoxazol-5-yl)pyridin-2(1H)-one]",< 100 nM,
"CS(=O)(=O)C1CCN(c2cccc(Cn3cc(-c4cc(-c5ccc(OC(F)(F)F)cc5)on4)ccc3=O)c2)CC1 [Example 99, 1-(3-(4-(Methylsulfonyl)piperidin-1-yl)benzyl)-5-(5-(4-(trifluoromethoxy)phenyl)isoxazol-3-yl)pyridin-2(1H)-one]",< 100 nM,
"CN1CCN(c2cccc(Cn3cc(-c4nnc(-c5ccc(OC(F)(F)F)cc5)o4)ccc3=O)c2)CC1 [Example 100, 1-Methyl-4-(3-((2-oxo-5-(5-(4-(trifluoromethoxy)phenyl)-1,3,4-oxadiazol-2-yl)pyridin-1(2H)-yl)methyl)phenyl)piperazin-1-ium 2,2,2-trifluoroacetate]",< 100 nM,
"CN1CCN(c2cc(Cn3cc(-c4nnc(-c5ccc(OC(F)(F)F)cc5)o4)ccc3=O)ccn2)CC1 [Example 101, 1-Methyl-4-(4-((2-oxo-5-(5-(4-(trifluoromethoxy)phenyl)-1,3,4-oxadiazol-2-yl)pyridin-1(2H)-yl)methyl)pyridin-2-yl)piperazin-1-ium 2,2,2-trifluoroacetate]",100 to 1000 nM,
COCCOc1cccc(Cn2cc(-c3nnc(-c4ccc(OC(F)(F)F)cc4)o3)ccc2=O)c1 [Example 102],< 100 nM,
CC(C)(O)c1cccc(Cn2cc(-c3nnc(-c4ccc(OC(F)(F)F)cc4)o3)ccc2=O)c1 [Example 103],< 100 nM,
CS(=O)(=O)CCCOc1cccc(Cn2cc(-c3nnc(-c4ccc(OC(F)(F)F)cc4)o3)ccc2=O)c1 [Example 104],< 100 nM,
"CS(=O)(=O)C1CCN(c2cccc(Cn3cc(-c4nnc(-c5ccc(OC(F)F)cc5)o4)ccc3=O)c2)CC1 [Example 105, 5-(5-(4-(Difluoromethoxy)phenyl)-1,3,4-oxadiazol-2-yl)-1-(3-(4-(methylsulfonyl)piperidin-1-yl)benzyl)pyridin-2(1H)-one]",< 100 nM,
"CC(C)Oc1ccc(-c2nnc(-c3ccc(=O)n(Cc4cccc(N5CCC(S(C)(=O)=O)CC5)c4)n3)o2)cc1 [Example 106, 6-(5-(4-Isopropoxyphenyl)-1,3,4-oxadiazol-2-yl)-2-(3-(4-(methylsulfonyl)piperidin-1-yl)benzyl)pyridazin-3(2H)-one]",< 100 nM,
"COC(=O)c1cccc(Cn2cc(-c3nc(-c4ccc(OC(F)(F)F)cc4)no3)ccc2=O)c1 [Example 107, methyl 3-((2-oxo-5-(3-(4-(trifluoromethoxy)phenyl)-1,2,4-oxadiazol-5-yl)pyridin-1(2H)-yl)methyl)benzoate]",100 to 1000 nM,
"O=c1ccc(-c2nc(-c3ccc(OC(F)(F)F)cc3)no2)nn1Cc1ccc(F)c(Br)c1 [Example 108, 2-(3-bromo-4-fluorobenzyl)-6-(3-(4-(trifluoromethoxy)phenyl)-1,2,4-oxadiazol-5-yl)pyridazin-3(2H)-one]",100 to 1000 nM,
"COC(=O)c1cccc(Cn2nc(-c3nc(-c4ccc(OC(F)(F)F)cc4)no3)ccc2=O)c1 [Example 109, methyl 3-((6-oxo-3-(3-(4-(trifluoromethoxy)phenyl)-1,2,4-oxadiazol-5-yl)pyridazin-1(6H)-yl)methyl)benzoate]",100 to 1000 nM,
"O=C(c1cccc(Cn2nc(-c3nc(-c4ccc(OC(F)(F)F)cc4)no3)ccc2=O)c1)N1CCOCC1 [Example 110, 2-(3-(morpholine-4-carbonyl)benzyl)-6-(3-(4-(trifluoromethoxy)phenyl)-1,2,4-oxadiazol-5-yl)pyridazin-3(2H)-one]",100 to 1000 nM,
"O=c1ccc(-c2nc(-c3ccc(OC(F)(F)F)cc3)no2)nn1Cc1ccc(F)c(N2CCOCC2)c1 [Example 111, 2-(4-fluoro-3-morpholinobenzyl)-6-(3-(4-(trifluoromethoxy)phenyl)-1,2,4-oxadiazol-5-yl)pyridazin-3(2H)-one]",< 100 nM,
"CN1CCN(C(=O)c2cccc(Cn3nc(-c4nc(-c5ccc(OC(F)(F)F)cc5)no4)ccc3=O)c2)CC1 [Example 112, 2-(3-(4-methylpiperazine-1-carbonyl)benzyl)-6-(3-(4-(trifluoromethoxy)phenyl)-1,2,4-oxadiazol-5-yl)pyridazin-3(2H)-one]",100 to 1000 nM,
"CN1CCN(c2cc(Cn3nc(-c4nc(-c5ccc(OC(F)(F)F)cc5)no4)ccc3=O)ccc2F)CC1 [Example 113, 2-(4-fluoro-3-(4-methylpiperazin-1-yl)benzyl)-6-(3-(4-(trifluoromethoxy)phenyl)-1,2,4-oxadiazol-5-yl)pyridazin-3(2H)-one]",< 100 nM,

# From patent US20140073634A1 (Institute For Applied Cancer Science/The University of …, priority 2012, published 2014)
